Data from US5616327A (SRI International, priority 1994, dated 1997).
Where no end group is shown, it is not given here.

Target: RNA polymerase-RNA complex ("cores" with transcriptase activity) (Influenza A virus, UniProt P03428+P03431+P03433)
Test: biochemical
Design: species or system Influenza virus A/PR/8/34
Details: for inhibition at 0.05 µM / inhibition at 0.5 µM / inhibition at 5 µM / inhibition at 50 µM: read-out: % Inhibition (inhibition of polymerase by peptides)

Compound | inhibition at 0.05 µM [%] | inhibition at 0.5 µM [%] | inhibition at 5 µM [%] | inhibition at 50 µM [%] | 50% inhibition (concentration, in words) | inhibition at 1 µM (1 μM, read-out: % Inhibition (inhibition of polymerase by peptide 6)) [%] | inhibition at 10 µM (10 μM, read-out: % Inhibition (inhibition of polymerase by peptide 6)) [%] | inhibition at 100 µM (100 μM, read-out: % Inhibition (inhibition of polymerase by peptide 6)) [%] | inhibition at 0.001 µM (.001 μM, read-out: % Inhibition (inhibition of polymerase by peptide 6)) [%] | inhibition at 0.01 µM (.010 μM, read-out: % Inhibition (inhibition of polymerase by peptide 6)) [%] | inhibition at 0.1 µM (.100 μM, read-out: % Inhibition (inhibition of polymerase by peptide 6)) [%]
KREITFHGAKEISLS [Peptide 3] | 9 | 8 | -9 | -30 | – | – | – | – | – | – | –
CC[C@H](C)[C@H](NC(=O)[C@H](CCC(N)=O)NC(=O)[C@H](CCC(=O)O)NC(=O)[C@H](CS)NC(=O)[C@@H](NC(=O)[C@H](C)NC(=O)[C@@H](N)CS)[C@@H](C)O)C(=O)N[C@@H](C)C(=O)N[C@@H](CC(=O)O)C(=O)N[C@@H](CO)C(=O)N[C@@H](CCC(N)=O)C(=O)N[C@@H](Cc1c[nH]cn1)C(=O)N[C@@H](CCCNC(=N)N)C(=O)N[C@@H](CO)C(=O)N[C@@H](Cc1c[nH]cn1)C(=O)N[C@@H](CCCNC(=N)N)C(=O)N[C@@H](CCC(N)=O)C(=O)N[C@@H](CCSC)C(=O)N[C@H](C(=O)O)C(C)C [Peptide 6] | – | – | – | – | picomolar range | > 100 | 98 | 81 | 77 | 82 | 99
CC[C@H](C)[C@H](NC(=O)[C@H](CCC(N)=O)NC(=O)[C@@H](N)CCC(=O)O)C(=O)N[C@@H](C)C(=O)N[C@@H](CC(=O)O)C(=O)N[C@@H](CO)C(=O)N[C@@H](CCC(N)=O)C(=O)N[C@@H](Cc1c[nH]cn1)C(=O)N[C@@H](CCCNC(=N)N)C(=O)N[C@@H](CO)C(=O)N[C@@H](Cc1c[nH]cn1)C(=O)N[C@@H](CCCNC(=N)N)C(=O)N[C@@H](CCC(N)=O)C(=O)N[C@@H](CCSC)C(=O)N[C@H](C(=O)O)C(C)C [Peptide 4] | 38 | 22 | 23 | 32 | – | – | – | – | – | – | –
LTVPSERGLQRRR [Peptide 1] | 3 | 2 | 9 | 35 | – | – | – | – | – | – | –
CSCC[C@H](NC(=O)[C@H](CC(N)=O)NC(=O)[C@H](CC(N)=O)NC(=O)[C@@H]1CCCN1C(=O)[C@H](CC(=O)O)NC(=O)CNC(=O)[C@H](CC(N)=O)NC(=O)CNC(=O)[C@H](CC(N)=O)NC(=O)[C@H](CC(C)C)NC(=O)[C@H](C)N)C(=O)N[C@@H](CC(=O)O)C(=O)N[C@@H](CCCCN)C(=O)N[C@@H](C)C(=O)N[C@H](C(=O)N[C@@H](CCCCN)C(=O)N[C@@H](CC(C)C)C(=O)N[C@@H](Cc1ccc(O)cc1)C(=O)O)C(C)C [Peptide 2] | -37 | -10 | -20 | -13 | – | – | – | – | – | – | –
CC(C)C[C@H](NC(=O)CNC(=O)[C@H](C)NC(=O)[C@H](CO)NC(=O)[C@H](CO)NC(=O)[C@H](CO)NC(=O)[C@@H]1CCCN1C(=O)[C@H](Cc1c[nH]cn1)NC(=O)[C@@H](NC(=O)CN)[C@@H](C)O)C(=O)N[C@@H](CCCCN)C(=O)N[C@@H](CC(N)=O)C(=O)N[C@@H](CC(=O)O)C(=O)N[C@@H](CC(C)C)C(=O)N[C@@H](CC(C)C)C(=O)N[C@@H](CCC(=O)O)C(=O)N[C@@H](CC(N)=O)C(=O)O [Peptide 5] | 16 | 14 | 1 | -30 | – | – | – | – | – | – | –
